Assay results: ChEMBL document CHEMBL4715782, “Multitarget-directed oxoisoaporphine derivatives: Anti-acetylcholinesterase, anti-β-amyloid aggregation and enhanced autophagy activity against Alzheimer's disease” (Bioorg Med Chem, 2016)
Calls of active or inactive are those of the source. The calls are words filed in the database; no cut-off is given here.

Assays:
in vitro = details: PAMPA
Description: Effective permeability of the compound in PBS/ethanol buffer (9:1) at 25 ug/ml after 10 hrs by UV plate reader based PAMPA-BBB assay

Drosophila melanogaster [1] = experiment: In vivo inhibition of AChE in Elav-GAL4/UAS-Abeta42 hybrid Drosophila melanogaster assessed as reduction in intracephalic AChE levels by HPLC analysis; type: functional; details: dose 0.1-10 µM
Acetylcholinesterase = Acetylcholinesterase (Electrophorus electricus, UniProt O42275); experiment: Inhibition of electric eel AChE using acetylthiocholine chloride as substrate incubated for 15 mins by Ellman's method
Homo sapiens = species: Homo sapiens; experiment: Inhibition of self-induced amyloid beta (1 to 42) (unknown origin) aggregation at 10 uM after 48 hrs by thioflavin-T fluorescence method relative to control
Caenorhabditis elegans = experiment: Induction of autophagy in Caenorhabditis elegans BC12921 expressing SQST-1-GFP fusion protein assessed as decrease in fluorescence intensity at 1 uM by microplate reader analysis; type: functional; design: scale not given: the % may be the effect or the level left
[2] = (§1) Inhibition of amyloid beta42 secretion in human SH-SY5Y cells overexpressing human APP Swedish mutant at 1 uM incubated for 24 hrs by ELISA; type: functional
SH-SY5Y = experiment: as §1; type: functional
Drosophila melanogaster [3] = experiment: In vivo inhibition of AChE in Elav-GAL4/UAS-Abeta42 hybrid Drosophila melanogaster assessed as reduction in intracephalic AChE levels at 0.1 to 10 uM by HPLC analysis; type: functional; details: dose 0.1-10 µM
[4] = biological target: Acetylcholinesterase (Electrophorus electricus) (UniProt O42275); experiment: Mixed type inhibition of electric eel AChE using acetylthiocholine chloride as substrate preincubated for 15 mins followed by substrate addition by reciprocal plot analysis
Chain of Acetylcholinesterase (Electrophorus electricus) (O42275 24-633 limits assumed): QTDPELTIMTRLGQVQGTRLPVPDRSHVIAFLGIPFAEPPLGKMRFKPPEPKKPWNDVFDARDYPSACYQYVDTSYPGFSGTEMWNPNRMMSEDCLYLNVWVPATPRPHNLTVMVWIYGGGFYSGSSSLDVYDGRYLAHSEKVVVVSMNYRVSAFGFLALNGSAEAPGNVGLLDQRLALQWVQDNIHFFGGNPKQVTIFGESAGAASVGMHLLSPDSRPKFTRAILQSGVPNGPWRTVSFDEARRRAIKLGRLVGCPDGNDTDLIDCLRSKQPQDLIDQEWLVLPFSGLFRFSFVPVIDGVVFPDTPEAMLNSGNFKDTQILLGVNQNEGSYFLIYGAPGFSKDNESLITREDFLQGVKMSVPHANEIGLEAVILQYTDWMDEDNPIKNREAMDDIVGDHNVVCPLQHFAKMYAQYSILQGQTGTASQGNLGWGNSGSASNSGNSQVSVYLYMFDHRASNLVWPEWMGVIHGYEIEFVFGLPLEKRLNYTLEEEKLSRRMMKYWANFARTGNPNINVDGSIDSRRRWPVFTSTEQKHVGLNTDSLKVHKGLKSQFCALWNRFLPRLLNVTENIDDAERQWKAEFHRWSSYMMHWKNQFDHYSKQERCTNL

Chain of Acetylcholinesterase (O42275 whole entry): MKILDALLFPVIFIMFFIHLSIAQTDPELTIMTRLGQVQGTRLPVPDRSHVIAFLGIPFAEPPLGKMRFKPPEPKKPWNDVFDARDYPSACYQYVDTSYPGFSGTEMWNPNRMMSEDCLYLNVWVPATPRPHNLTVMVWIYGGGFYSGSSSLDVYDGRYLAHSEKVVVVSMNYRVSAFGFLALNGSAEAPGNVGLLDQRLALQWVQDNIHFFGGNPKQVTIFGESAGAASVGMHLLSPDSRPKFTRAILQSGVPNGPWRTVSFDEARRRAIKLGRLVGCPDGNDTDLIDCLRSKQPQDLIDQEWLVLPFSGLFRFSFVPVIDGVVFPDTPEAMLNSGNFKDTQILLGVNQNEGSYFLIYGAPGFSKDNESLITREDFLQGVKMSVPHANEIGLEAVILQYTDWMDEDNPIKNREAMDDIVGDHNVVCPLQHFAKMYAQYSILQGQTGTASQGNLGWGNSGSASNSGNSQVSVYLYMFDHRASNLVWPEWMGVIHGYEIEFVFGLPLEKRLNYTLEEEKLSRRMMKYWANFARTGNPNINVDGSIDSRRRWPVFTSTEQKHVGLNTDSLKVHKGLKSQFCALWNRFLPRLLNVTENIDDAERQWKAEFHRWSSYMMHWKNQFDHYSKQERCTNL

What does the source list for `O=C(CCCCN1CCCCC1)Nc1c(Cl)ccc2c1-c1nccc3cccc(c13)C2=O`?
Papp at 10 h, 25 ug/ml (in vitro): 1.74 ×10⁻⁶ cm/s; inhibition (Drosophila melanogaster [1]): Dose-dependent effect; IC50 (Acetylcholinesterase): 1800 nM; inhibition (Homo sapiens): 71.2%

Which results are given for `O=C(CN1CCCCC1)Nc1cccc2c1C(=O)c1cccc3ccnc-2c13`?
Papp at 10 h, 25 ug/ml (in vitro): 1.63 ×10⁻⁶ cm/s; inhibition (Drosophila melanogaster [1]): Dose-dependent effect; IC50 (Acetylcholinesterase): 156 nM; inhibition (Homo sapiens): 57.6%

Which Activity (Caenorhabditis elegans) does the source give for `O=C(CCN1CCCCC1)Nc1c(Cl)ccc2c1-c1nccc3cccc(c13)C2=O` here?
Its Activity is 26.5%.

And the Papp at 10 h, 25 ug/ml (in vitro)?
The Papp at 10 h, 25 ug/ml was 8.24 ×10⁻⁶ cm/s.

And the inhibition at 1 µM [2]?
Its inhibition at 1 µM is 46%.

What about the inhibition (SH-SY5Y) of the same compound?
The inhibition was “Active”.

And the inhibition (Drosophila melanogaster [1])?
The inhibition was “Dose-dependent effect”.

What about the inhibition (Drosophila melanogaster [3]) of the same compound?
Its inhibition is “Active”.

What about the inhibition [4] of the same compound?
Its inhibition is “Active”.

And the IC50 (Acetylcholinesterase)?
The IC50 was 28.4 nM.

What about the inhibition (Homo sapiens) of the same compound?
The inhibition was 74.6%.

Which Papp at 10 h, 25 ug/ml (in vitro) does the source give for `O=C(CN1CCCCC1)Nc1c(Cl)ccc2c1-c1nccc3cccc(c13)C2=O` here?
Its Papp at 10 h, 25 ug/ml is 1.36 ×10⁻⁶ cm/s.

What about the inhibition (SH-SY5Y) of the same compound?
The inhibition was “Active”.

What about the inhibition (Drosophila melanogaster [1]) of the same compound?
The inhibition was “Dose-dependent effect”.

And the IC50 (Acetylcholinesterase)?
The IC50 was 32.1 nM.

And the inhibition (Homo sapiens)?
Its inhibition is 51.3%.

With `O=C(CCN1CCCCC1)Nc1cccc2c1C(=O)c1cccc3ccnc-2c13` as the compound, how does the Activity (Caenorhabditis elegans) read?
The Activity was 28%.

What about the Papp at 10 h, 25 ug/ml (in vitro) of the same compound?
The Papp at 10 h, 25 ug/ml was 2.54 ×10⁻⁶ cm/s.

What about the inhibition (SH-SY5Y) of the same compound?
The inhibition was “Active”.

And the inhibition (Drosophila melanogaster [1])?
The inhibition was “Dose-dependent effect”.

And the inhibition (Drosophila melanogaster [3])?
The inhibition was “Active”.

And the inhibition [4]?
Its inhibition is “Active”.

What about the IC50 (Acetylcholinesterase) of the same compound?
The IC50 was 80.8 nM.

What about the inhibition (Homo sapiens) of the same compound?
The inhibition was 76.1%.

Which Papp at 10 h, 25 ug/ml (in vitro) does the source give for `O=C(CCCCCN1CCCCC1)Nc1cccc2c1C(=O)c1cccc3ccnc-2c13` here?
The Papp at 10 h, 25 ug/ml was 4.92 ×10⁻⁶ cm/s.

And the inhibition (Drosophila melanogaster [1])?
The inhibition was “Dose-dependent effect”.

What about the IC50 (Acetylcholinesterase) of the same compound?
The IC50 was 472 nM.

And the inhibition (Homo sapiens)?
Its inhibition is 55.7%.

What does the source list for `O=C(CCCN1CCCCC1)Nc1c(Cl)ccc2c1-c1nccc3cccc(c13)C2=O`?
Papp at 10 h, 25 ug/ml (in vitro): 2.44 ×10⁻⁶ cm/s; inhibition (Drosophila melanogaster [1]): Dose-dependent effect; inhibition (Drosophila melanogaster [3]): Active; IC50 (Acetylcholinesterase): 148 nM; inhibition (Homo sapiens): 78.4%

Which inhibition (Homo sapiens) does the source give for `COc1cc(/C=C/C(=O)CC(=O)/C=C/c2ccc(O)c(OC)c2)ccc1O` here?
The inhibition was 45.1%.

Which Papp at 10 h, 25 ug/ml (in vitro) does the source give for `O=C(CCCCCN1CCCCC1)Nc1c(Cl)ccc2c1-c1nccc3cccc(c13)C2=O` here?
Its Papp at 10 h, 25 ug/ml is 2.72 ×10⁻⁶ cm/s.

What about the inhibition (Drosophila melanogaster [1]) of the same compound?
Its inhibition is “Dose-dependent effect”.

And the IC50 (Acetylcholinesterase)?
The IC50 was 380 nM.

What about the inhibition (Homo sapiens) of the same compound?
Its inhibition is 67.7%.

With `O=C(CCCN1CCCCC1)Nc1cccc2c1C(=O)c1cccc3ccnc-2c13` as the compound, how does the Papp at 10 h, 25 ug/ml (in vitro) read?
Its Papp at 10 h, 25 ug/ml is 1.52 ×10⁻⁶ cm/s.

What about the inhibition (SH-SY5Y) of the same compound?
Its inhibition is “Active”.

And the inhibition (Drosophila melanogaster [1])?
Its inhibition is “Dose-dependent effect”.

What about the IC50 (Acetylcholinesterase) of the same compound?
Its IC50 is 187 nM.

What about the inhibition (Homo sapiens) of the same compound?
Its inhibition is 61.3%.

For `O=C(CCCCN1CCCCC1)Nc1cccc2c1C(=O)c1cccc3ccnc-2c13`, which Papp at 10 h, 25 ug/ml (in vitro) is on record?
Its Papp at 10 h, 25 ug/ml is 6.59 ×10⁻⁶ cm/s.

What about the inhibition (Drosophila melanogaster [1]) of the same compound?
The inhibition was “Dose-dependent effect”.

And the IC50 (Acetylcholinesterase)?
The IC50 was 978 nM.

And the inhibition (Homo sapiens)?
Its inhibition is 52.5%.
